The source of these data is PMC11721022, “Standardized Chromatographic and Computational Approaches for Lipophilicity Analysis of Five Gliflozin Antidiabetic Drugs in Relation to Their Biological Activity” (Molecules, 2024).

On the set-up of data set [1]: method as in PMID 30151080, PMID 34586753. Particulars: cited from earlier work.
Details of data set [2]: method as in PMID 30151080, PMID 34586753. The settings on record: cited from earlier work. This is another data set of the same source.
For data set [3], the system named is SGLT2. Description: SGLT2 inhibition (literature). In kind it is biochemical. Particulars: pIC50 (SGLT2, literature) minus mean log PEXP.
Data set [4] concerns SGLT2. The settings on record: Table 6; cited from earlier work.
The nature of data set [5]: Experimental lipophilicity from HPLC and TLC methods combined (standardization procedure). The settings on record: mean over all HPLC and TLC systems. The format is physicochemical. As for the experimental part: (§1) In our study, six standards of known lipophilicity in the range of 0.62–3.5 were used. For each standard, the same chromatographic procedures were performed as for the analyzed drugs, obtaining their RF or tR values. Then, the RM, RMW, log k, and log kW values were calculated using Equations (1)–(3). In the next step, correlations between the chromatographically obtained RMW or log kW values for these six standards and their literary log P values were calculated and expressed as respective calibration equations (Table 1). In addition, using these calibration equations, the chromatographic systems were evaluated by calculating the log PEXP values for the standards. […] From these calibration equations, the experimental log PTLC and log PHPLC (log PEXP) for the examined drugs were determined, using their RMW and log kW values.

A short description of data set [6]: HPLC lipophilicity (log kW, standardized to log PEXP). In kind it is physicochemical. As for the experimental part: All experiments were performed using an HPLC system equipped with a solvent delivery pump 515 and a UV/VIS detector 2487 from Waters UK Sales (Elstree, UK), a degasser 964 from Jasco Inc. (Easton, MD, USA), and LiChrospher RP18, RP8 and CN columns (125 × 4.0 mm, 5 µm) from Merck. For RP18 and RP8 stationary phases, acetonitrile was used in the range of 35–60% and methanol in the range of 55–80%. For CN adsorbent, acetonitrile was used in the range 30–55% and methanol in the range 45–70%. For all chromatographic systems, a 5% step change in the concentration of the organic modifier was applied (Table S2 in Supplementary Files). The flow for each mobile phase and each chromatographic run was 1 mL/min while detection was performed at 260 nm. The analyzed drugs and six reference substances were dissolved in methanol to obtain concentrations of 0.1 mg/mL and injected into the column in the volume of 20 µL. All experiments were performed in triplicate with a constant temperature of 23 ± 0.5 °C.
as §1

Data set [7] is described as follows: TLC lipophilicity (RMW, standardized to log PEXP). The format is physicochemical. As for the experimental part: Plates (10 × 10 cm, 0.25 mm) pre-coated with silica gel RP18F254, RP8F254 and CNF254 from Merck were used as the stationary phases. The tested drugs and six reference substances were dissolved in methanol to obtain working solutions at a concentration of 2 mg/mL. Volumes of 5 µL of these working solutions were spotted onto the plates which were then developed at a distance of 9 cm in the horizontal developing chambers (Chromdes, Lublin, Poland). The ranges for the organic modifier concentration in water varied depending on the type of stationary phase and the modifier used. For RP18 and RP8 systems, acetonitrile in the range 35–60% and methanol in the range 60–85% were used. For CN systems, acetonitrile was used in the range of 40–60% while methanol was used in the range of 45–65%. […] All experiments were performed in triplicate with a constant temperature of 23 ± 0.5 °C.
as §1

Details of data set [8]: method as in earlier work. Particulars: established lipophilicity of standards; cited from earlier work.
Setting [9] is: LiChrospher CN HPLC column (125 × 4.0 mm, 5 µm), HPLC.CN/ACN (CN column, acetonitrile modifier).
Where [10] appears, read: LiChrospher CN HPLC column (125 × 4.0 mm, 5 µm), HPLC.CN/MeOH (CN column, methanol modifier).
Where [11] appears, read: LiChrospher RP18 HPLC column (125 × 4.0 mm, 5 µm), HPLC.RP18/MeOH.
[12] abbreviates: LiChrospher RP8 HPLC column (125 × 4.0 mm, 5 µm), HPLC.RP8/ACN.
Setting [13] is: LiChrospher RP18 HPLC column (125 × 4.0 mm, 5 µm), HPLC.RP18/ACN.
Setting [14] is: HPLC.CN/MeOH (CN column, methanol modifier).
[15] abbreviates: LiChrospher RP8 HPLC column (125 × 4.0 mm, 5 µm), HPLC.RP8/MeOH.

The term IC50 denotes the point on the concentration scale where inhibition reaches its midpoint. In general, chromatographic logP refers to a lipophilicity value derived from retention on a column. Lower therefore signals lower lipophilicity. Take `Cc1ccc([C@@H]2O[C@H](CO)[C@@H](O)[C@H](O)[C@H]2O)cc1Cc1ccc(-c2ccc(F)cc2)s1` [CANA, canagliflozin]: the “CL (apparent total clearance)” value in data set [1] is on record as 11.52 L/h. Besides, in data set [1], the “VD (apparent volume of distribution)” value is on record as 83.5 L. Further, the “PB (protein-binding capacity)” value in data set [2] is 99%. For the same compound, the “LLE (lipophilic ligand efficiency)” value with SGLT2 [3] amounted to 4.67. Moreover, the IC50 in the data set with SGLT2 [4] was 2.2 nM. Further, in data set [5], the “log PEXP (Mean ± SD)” value came to 3.99 ± 0.91. The “log PEXP” value turned out to be 3.23 in data set [6] (HPLC.RP8/ACN), 4.43 in data set [6] (HPLC.RP8/MeOH) and 3.28 in data set [6] (HPLC.RP18/ACN). In addition, the chromatographic logP stood at 3.73 in data set [6] (setting [9]); 4.91 in data set [6] (setting [10]); 4.55 in data set [6] (setting [11]); 2.4 in data set [7] (TLC.CN/ACN); 5.86 in data set [7] (TLC.CN/MeOH); 3.55 in data set [7] (TLC.RP8/ACN). The chromatographic logP in data set [7] (TLC.RP8/MeOH) was 4.07; in data set [7] (TLC.RP18/ACN), 3.47; in data set [7] (TLC.RP18/MeOH) it was 4.43.

Regarding `CCOc1ccc(Cc2cc([C@@H]3O[C@H](CO)[C@@H](O)[C@H](O)[C@H]3O)ccc2Cl)cc1` [DAPA, dapagliflozin], the “CL (apparent total clearance)” value in data set [1] is listed as 12.42 L/h. Further, the “VD (apparent volume of distribution)” value in data set [1] is 118 L. Besides, the “PB (protein-binding capacity)” value in data set [2] is given as 91%. For the same compound, in the data set with SGLT2 [3], the “LLE (lipophilic ligand efficiency)” value worked out at 6.12. Besides, in data set [5], the “log PEXP (Mean ± SD)” value is on record as 2.83 ± 0.78. Moreover, the “log PEXP” value in data set [6] (HPLC.CN/ACN (CN column, acetonitrile modifier)) is listed as 2.34; in data set [6] (HPLC.RP8/MeOH), 3.20; in data set [7] (TLC.RP8/MeOH), 3.14. For the same compound, the chromatographic logP in data set [6] (setting [10]) was determined as 3.08; in data set [6] (setting [12]) it was 2.11; in data set [6] (setting [13]) it was 2; in data set [6] (setting [11]), 3.27; in data set [7] (TLC.CN/ACN) it was 2.03; in data set [7] (TLC.CN/MeOH), 4.72. For the same compound, the chromatographic logP stood at 2.3 in data set [7] (TLC.RP8/ACN), 2.22 in data set [7] (TLC.RP18/ACN) and 3.58 in data set [7] (TLC.RP18/MeOH).

As to `OC[C@H]1O[C@@H](c2ccc(Cl)c(Cc3ccc(O[C@H]4CCOC4)cc3)c2)[C@H](O)[C@@H](O)[C@@H]1O` [EMPA, empagliflozin], the “CL (apparent total clearance)” value in data set [1] is listed as 10.6 L/h. Besides, the “T0.5 (half-life)” value in data set [1] is 12.4 h. Besides, in data set [1], the “VD (apparent volume of distribution)” value is reported as 73.8 L. Further, the “PB (protein-binding capacity)” value in data set [2] is 86%. The “LLE (lipophilic ligand efficiency)” value with SGLT2 [3] was determined as 6.23. Further, in data set [5], the “log PEXP (Mean ± SD)” value was 2.28 ± 0.73. Moreover, the “log PEXP” value in data set [6] (setting [14]) worked out at 2.66; in data set [6] (HPLC.RP8/ACN) it was 1.70; in data set [7] (TLC.RP18/ACN), 1.30. The chromatographic logP came to 2.3 in data set [6] (setting [9]); 2.78 in data set [6] (setting [15]); 1.35 in data set [6] (setting [13]); 2.85 in data set [6] (setting [11]); 1.87 in data set [7] (TLC.CN/ACN); 3.51 in data set [7] (TLC.CN/MeOH). The chromatographic logP in data set [7] (TLC.RP8/ACN) was 1.68; in data set [7] (TLC.RP8/MeOH), 2.48; in data set [7] (TLC.RP18/MeOH), 2.99.

`CCOc1ccc(Cc2cc([C@]34OC[C@](CO)(O3)[C@@H](O)[C@H](O)[C@H]4O)ccc2Cl)cc1` [ERTU, ertugliflozin]: in data set [1], the “CL (apparent total clearance)” value is given as 10.68 L/h. Moreover, in data set [1], the “T0.5 (half-life)” value was 11 h. Further, the “VD (apparent volume of distribution)” value in data set [1] is given as 85.5 L. For the same compound, in data set [2], the “PB (protein-binding capacity)” value was 94%. Further, the “LLE (lipophilic ligand efficiency)” value in the data set with SGLT2 [3] was 6.02. Moreover, in the data set with SGLT2 [4], the IC50 was 0.87 nM. Besides, the “log PEXP (Mean ± SD)” value in data set [5] was 3.04 ± 0.61. Further, the “log PEXP” value in data set [6] (HPLC.RP18/ACN) was 2.22; in data set [7] (TLC.RP8/ACN), 2.99. In addition, the chromatographic logP is 2.49 in data set [6] (setting [9]); 3.36 in data set [6] (setting [10]); 2.4 in data set [6] (setting [12]); 3.49 in data set [6] (setting [15]); 3.59 in data set [6] (setting [11]); 2.01 in data set [7] (TLC.CN/ACN). For the same compound, the chromatographic logP in data set [7] (TLC.CN/MeOH) was determined as 3.97; in data set [7] (TLC.RP8/MeOH) it was 3.54; in data set [7] (TLC.RP18/ACN) it was 3.13; in data set [7] (TLC.RP18/MeOH), 3.27.

A word on the log P: it is a log measure of how a compound divides between an organic and an aqueous phase. As to `Nc1ccccc1O` [S1, 2-aminophenol], the “log P” value in data set [8] is reported as 0.62.

Consider `c1ccc(Nc2ccccc2)cc1` [S6, diphenylamine], for which the “log P” value in data set [8] is given as 3.5.

For `CCOc1ccc(Cc2cc([C@@H]3O[C@H](SC)[C@@H](O)[C@H](O)[C@H]3O)ccc2Cl)cc1` [SOTA, sotagliflozin], in data set [1], the “CL (apparent total clearance)” value was 261 L/h. The “T0.5 (half-life)” value in data set [1] was 21 h. Also, in data set [1], the “VD (apparent volume of distribution)” value is reported as 9392 L. The “PB (protein-binding capacity)” value in data set [2] is listed as 98%. For the same compound, in the data set with SGLT2 [3], the “LLE (lipophilic ligand efficiency)” value worked out at 4.8. The IC50 in the data set with SGLT2 [4] was 1.8 nM. The “log PEXP (Mean ± SD)” value in data set [5] came to 3.94 ± 0.67. The entries for the “log PEXP” value in data set [6] (setting [14]), in data set [6] (HPLC.RP8/MeOH) and in data set [6] (HPLC.RP18/MeOH) were 4.57, 4.43 and 4.50, respectively. The chromatographic logP in data set [6] (setting [9]) is 3.59; in data set [6] (setting [12]), 3.28; in data set [6] (setting [13]), 3.4; in data set [7] (TLC.CN/ACN) it was 2.32; in data set [7] (TLC.CN/MeOH), 4.61; in data set [7] (TLC.RP8/ACN) it was 4.08. In addition, the chromatographic logP in data set [7] (TLC.RP8/MeOH) was 4.26; in data set [7] (TLC.RP18/ACN) it was 3.69; in data set [7] (TLC.RP18/MeOH) it was 4.5.
